# Experimental data from article PMC7673680, “Small-molecule sequestration of amyloid-β as a drug discovery strategy for Alzheimer’s disease” (Science Advances, 2020).
# Target: T1, amyloid-β 42 (Aβ42), monomeric (Homo sapiens, UniProt P05067)
# T1 construct: gene APP; Aβ42, monomeric 42-residue peptide, N-terminally biotinylated for BLI
# Assay: biolayer interferometry (kon/koff global fit); supported by 2D HN-BESTCON NMR and dot-blot sequestration fit (Kd […])
# Type: binding
# T1 sequence (P05067 672-713): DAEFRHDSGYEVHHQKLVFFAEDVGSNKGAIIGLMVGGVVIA
structure (smiles),measurement,value
"O=[N+]([O-])c1ccc(Nc2ccccc2-c2ccccc2)c2nonc12 [10074-G5, biphenyl-2-yl-(7-nitro-benzo[1,2,5]oxadiazol-4-yl)-amine]",Kd,6 µM
